Test results: patent US20180016593A1, “HERBICIDE-RESISTANT SUNFLOWER PLANTS, POLYNUCLEOTIDES ENCODING HERBICIDE-RESISTANT ACETOHYDROXYACID SYNTHASE LARGE SUBUNIT PROTEINS, AND METHODS OF USE” (priority 2005, published 2018)
Read-outs that look alike come from different tables or passages of the source.

Assays:
[1] = system: sunflower GM40 (Manteiner Line, A122T); experiment: Greenhouse whole-plant imazapir dose response (Example 8); assay type: in vivo, Helianthus annuus; conditions: 14 DAT
Method: (§1) A greenhouse study was conducted to quantify and contrast the imazapir sensivity of the mutants A122T and A205V in different genetic backgrounds at the whole plant level in sunflower. Seeds of the different sunflower lines that were used in this study were obtained under field conditions.
(§2) Seeds were sown in Petri dishes and, after germination, plantlets were transplanted to pots of 10 cm of diameter in a potting media consisting of equal parts of vermiculite, soil and sand. Plants were grown in a greenhouse under natural light conditions supplemented with 400 W sodium halide lamps to provide a 16 hrs daylength. Day/night temperatures were 25 and 20° C., respectively. At the V2 stage 10 plants of each genotype were randomly assigned to each treatment consisting of […] imazapir doses (0, 40, 80, 160, 240, 320, 400 and 480 g ai/ha), and a zero-time biomass determination. Experiment was arranged as a randomized block design with a full factorial (sunflower line×treatment) arrangement of treatments and 10 replications.
(§3) On the day of herbicide application ten plants of each genotype were cut at the cotyledonal node and dried at 60° C. for 48 hrs zero-time for dried weight determination.
(§4) Height was determined as the distance between the cotyledonal node and the apex of each plant. For root biomass determination, each plant was taken from the pot and the potting media was washed out from the roots. Above ground biomass data from each line were converted to biomass accumulation after application by subtracting the appropriate average zero-time biomass from each sample. Dry biomass data were converted to percentages of the untreated control plants within each line to allow direct comparisons between groups. […]

[2] = system: sunflower TH10 (Restorer Line, A205V); assay type: in vivo, Helianthus annuus; conditions: 14 DAT
Method: as §1, §2, §3, §4

[3] = system: sunflower TH1 (Hybrid, A205V); assay type: in vivo, Helianthus annuus; conditions: 14 DAT
Method: as §1, §2, §3, §4

[4] = system: Clearfield sunflower variety B; experiment: Greenhouse spray injury rating (Example 5); assay type: in vivo; conditions: in vivo
From the text: (§5) Methods: Sunflower lines S4897, Clearfield® sunflower varieties A, B, C and a conventional non-Clearfield variety were sprayed with three rates of imazamox (Raptor™), 100, 200 and 300 gm ai/ha plus 0.5% Sun It II and two rates of imazapyr (Arsenal™) 160 and 360 gm ai/ha plus 0.5% Sun It II when the plants were at the two to three leaf stage. Ratings were taken at 14 days after application (DAT) for injury. Injury was rated on a scale from 0 to 9 where […] to 9=dead plant. Twelve plants were sprayed per herbicide/rate treatment. Statistical analysis was conducted with STATGRAPHICS Plus 5.0 by using ANOVA and LSD procedures.
(§6) Results: After plants were sprayed, it was realized that a height difference between S4897 and other sunflower varieties would have impacted the actual herbicide dose that was delivered. The spray boom height had been calibrated against S4897 and since the other varieties were taller and closer to the boom they would have received a greater dose of herbicide. Rates were recalibrated for the other varieties to determine the approximate dose they would have received. Assessments were made as presented in Table 2 since it was not possible to make a direct rate comparison due to the effect of the height. For example injury scores were compare for S4897 treated imazamox rate 100 gm ai/ha to the other varieties treated at 75 gm ai/ha. The treatment dose of 300 gm ai/ha for line S4897 was equivalent to the treatment of 200 gm ai/ha for the other varieties, which approximately was 300 gm ai/ha.

[5] = system: conventional non-Clearfield variety; experiment: Greenhouse spray injury rating (Example 5); assay type: in vivo; conditions: in vivo
From the text: as §5, §6

[6] = system: Clearfield sunflower variety A; experiment: Greenhouse spray injury rating (Example 5); assay type: in vivo; conditions: in vivo
From the text: as §5, §6

[7] = system: Clearfield sunflower variety C; experiment: Greenhouse spray injury rating (Example 5); assay type: in vivo; conditions: in vivo
From the text: as §5, §6

CC(C)C1(C)N=C(c2ncccc2C(=O)O)NC1=O (centres unmarked) [imazapyr] was tested, and the “biomass accumulation (above ground dry weight)” value (from here on “biomass accumulation”) ([1]; 0.5x (40 g ai/ha)) was 96.5 % of untreated plots, the plant height ([1]; 0.5x (40 g ai/ha)) was 99.6 % of untreated plots and the root dry weight ([1]; 0.5x (40 g ai/ha)) was 100 % of untreated plots. For the same compound, the “biomass accumulation” value ([1]; 1x (80 g ai/ha)) was 94.1 % of untreated plots, the plant height ([1]; 1x (80 g ai/ha)) was 97.4 % of untreated plots and the root dry weight ([1]; 1x (80 g ai/ha)) was 100 % of untreated plots. For the same compound, the “biomass accumulation” value ([1]; 2x (160 g ai/ha)) was 97.6 % of untreated plots, the plant height ([1]; 2x (160 g ai/ha)) was 95.2 % of untreated plots and the root dry weight ([1]; 2x (160 g ai/ha)) was 100 % of untreated plots. The “biomass accumulation” value ([1]; 3x (240 g ai/ha)) was 95.8 % of untreated plots, the plant height ([1]; 3x (240 g ai/ha)) was 93.0 % of untreated plots and the root dry weight ([1]; 3x (240 g ai/ha)) was 92.2 % of untreated plots. The “biomass accumulation” value ([1]; 4x (320 g ai/ha)) was 88.3 % of untreated plots, the plant height ([1]; 4x (320 g ai/ha)) was 93.0 % of untreated plots and the root dry weight ([1]; 4x (320 g ai/ha)) was 98.1 % of untreated plots. For the same compound, the “biomass accumulation” value ([1]; 5x (400 g ai/ha)) was 85.6 % of untreated plots, the plant height ([1]; 5x (400 g ai/ha)) was 93.9 % of untreated plots and the root dry weight ([1]; 5x (400 g ai/ha)) was 84.2 % of untreated plots. For the same compound, the “biomass accumulation” value ([1]; 6x (480 g ai/ha)) was 76.8 % of untreated plots, the plant height ([1]; 6x (480 g ai/ha)) was 84.3 % of untreated plots and the root dry weight ([1]; 6x (480 g ai/ha)) was 74.3 % of untreated plots. For the same compound, the “Phytotoxicity Index” value ([2]; 0.5x (40 g ai/ha)) was 0, the “biomass accumulation” value ([2]; 0.5x (40 g ai/ha)) was 99.2 % of untreated plots and the plant height ([2]; 0.5x (40 g ai/ha)) was 99.2 % of untreated plots. The root dry weight ([2]; 0.5x (40 g ai/ha)) was 90.3 % of untreated plots, the “Phytotoxicity Index” value ([2]; 1x (80 g ai/ha)) was 0 and the “biomass accumulation” value ([2]; 1x (80 g ai/ha)) was 85.0 % of untreated plots. The plant height ([2]; 1x (80 g ai/ha)) was 98.1 % of untreated plots, the root dry weight ([2]; 1x (80 g ai/ha)) was 69.9 % of untreated plots and the “Phytotoxicity Index” value ([2]; 2x (160 g ai/ha)) was 3.1. The “biomass accumulation” value ([2]; 2x (160 g ai/ha)) was 58.1 % of untreated plots, the plant height ([2]; 2x (160 g ai/ha)) was 63.6 % of untreated plots and the root dry weight ([2]; 2x (160 g ai/ha)) was 41.3 % of untreated plots. The “Phytotoxicity Index” value ([2]; 3x (240 g ai/ha)) was 3.9, the “biomass accumulation” value ([2]; 3x (240 g ai/ha)) was 48.1 % of untreated plots and the plant height ([2]; 3x (240 g ai/ha)) was 51.9 % of untreated plots. The root dry weight ([2]; 3x (240 g ai/ha)) was 42.8 % of untreated plots, the “Phytotoxicity Index” value ([2]; 4x (320 g ai/ha)) was 5.9 and the “biomass accumulation” value ([2]; 4x (320 g ai/ha)) was 28.8 % of untreated plots. For the same compound, the plant height ([2]; 4x (320 g ai/ha)) was 27.5 % of untreated plots, the root dry weight ([2]; 4x (320 g ai/ha)) was 22.3 % of untreated plots and the “Phytotoxicity Index” value ([2]; 5x (400 g ai/ha)) was 6.9. The “biomass accumulation” value ([2]; 5x (400 g ai/ha)) was 27.4 % of untreated plots, the plant height ([2]; 5x (400 g ai/ha)) was 26.0 % of untreated plots and the root dry weight ([2]; 5x (400 g ai/ha)) was 22.7 % of untreated plots. The “Phytotoxicity Index” value ([2]; 6x (480 g ai/ha)) was 6.7, the “biomass accumulation” value ([2]; 6x (480 g ai/ha)) was 24.9 % of untreated plots and the plant height ([2]; 6x (480 g ai/ha)) was 29.3 % of untreated plots. The root dry weight ([2]; 6x (480 g ai/ha)) was 16.4 % of untreated plots, the “biomass accumulation” value ([3]; 0.5x (40 g ai/ha)) was 95.0 % of untreated plots and the plant height ([3]; 0.5x (40 g ai/ha)) was 99.5 % of untreated plots. The root dry weight ([3]; 0.5x (40 g ai/ha)) was 79.4 % of untreated plots, the “biomass accumulation” value ([3]; 1x (80 g ai/ha)) was 89.6 % of untreated plots and the plant height ([3]; 1x (80 g ai/ha)) was 99.5 % of untreated plots. For the same compound, the root dry weight ([3]; 1x (80 g ai/ha)) was 70.7 % of untreated plots, the “biomass accumulation” value ([3]; 2x (160 g ai/ha)) was 75.5 % of untreated plots and the plant height ([3]; 2x (160 g ai/ha)) was 78.6 % of untreated plots. The root dry weight ([3]; 2x (160 g ai/ha)) was 69.6 % of untreated plots, the “biomass accumulation” value ([3]; 3x (240 g ai/ha)) was 60.4 % of untreated plots and the plant height ([3]; 3x (240 g ai/ha)) was 48.4 % of untreated plots. The root dry weight ([3]; 3x (240 g ai/ha)) was 42.3 % of untreated plots, the “biomass accumulation” value ([3]; 4x (320 g ai/ha)) was 48.5 % of untreated plots and the plant height ([3]; 4x (320 g ai/ha)) was 28.9 % of untreated plots. The root dry weight ([3]; 4x (320 g ai/ha)) was 38.6 % of untreated plots, the “biomass accumulation” value ([3]; 5x (400 g ai/ha)) was 38.9 % of untreated plots and the plant height ([3]; 5x (400 g ai/ha)) was 25.3 % of untreated plots. The root dry weight ([3]; 5x (400 g ai/ha)) was 34.7 % of untreated plots, the “biomass accumulation” value ([3]; 6x (480 g ai/ha)) was 33.9 % of untreated plots and the plant height ([3]; 6x (480 g ai/ha)) was 27.1 % of untreated plots. For the same compound, the root dry weight ([3]; 6x (480 g ai/ha)) was 23.1 % of untreated plots, the “Injury (scale 0 to 9)” value [4] was 4.3 b and the “Injury (scale 0 to 9)” value [5] was 8.2 days. For the same compound, the “Injury (scale 0 to 9)” value [6] was 5.0 c and the “Injury (scale 0 to 9)” value [7] was 4.9 c.
